For two compounds, Kd results are on record in PMC11474193, “A cub and sushi domain-containing protein with esterase-like activity confers insecticide resistance in the Indian malaria vector Anopheles stephensi” (The Journal of Biological Chemistry, 2024).

Assay [1] concerns T1, CUB and Sushi Domain-containing Insecticide Resistance (CSDIR) protein (XP_035915664.1).
T1 construct: CSDIR^913-1190 (C-terminal CUB and Sushi domains, recombinant in E. coli)
Nature of the assay: SPR, steady-state fit; degradation by the protein also shown by UPLC. The format is binding, Anopheles stephensi.

The test system is the same in assay [2]. Nature of the assay: SPR, immobilized CSDIR913-1190, steady-state fit. The assay is classed as binding, Anopheles stephensi.

With `CC1(C)[C@H](C(=O)O[C@H](C#N)c2cccc(Oc3ccccc3)c2)[C@@H]1C=C(Br)Br` [deltamethrin], the Kd in assay [1] was 46.7 µM.
For the compound `CCOC(=O)CC(SP(=S)(OC)OC)C(=O)OCC` (centres unmarked) [malathion], the equilibrium dissociation constant (Kd) in assay [2] worked out at 6.43 µM.

The term Kd denotes the free concentration of one partner at which half of the binding sites on the other are occupied at equilibrium, for simple one-to-one binding. A lower Kd goes with tighter binding.
